Experiment [1] has as its target T1, Mu-type opioid receptor (Cavia porcellus, UniProt P97266). Description: In vitro mu opioid activity was determined by its ability to inhibit the electrically induced contractions of smooth muscle preparations in guinea pig ileum (GPI). The experiment is classed as functional, tissue-based.
Experiment [2] has as its target Delta-type opioid receptor (Mus musculus, UniProt P32300). Description: In vitro delta opioid activity was determined by its ability to inhibit the electrically induced contractions of smooth muscle preparations in mouse vas deferens (MVD). The experiment is classed as functional, tissue-based.
The target in experiment [3] is T1, Mu-type opioid receptor. Description: Compound was tested for moderate potency against mu opioid receptor in guinea pig ileum. The class given is tissue-based.
The target in experiment [4] is T1, Mu-type opioid receptor. Description: Compound was tested for its ability to activate mu opioid receptor in GPI bioassay.
Experiment [5] has as its target Mu-type opioid receptor (Homo sapiens, UniProt P35372). Description: Compound was tested for binding affinity against mu opioid receptor binding assay.

SMILES strings stand for the structures.

Sequence of Delta-type opioid receptor (P32300 whole entry): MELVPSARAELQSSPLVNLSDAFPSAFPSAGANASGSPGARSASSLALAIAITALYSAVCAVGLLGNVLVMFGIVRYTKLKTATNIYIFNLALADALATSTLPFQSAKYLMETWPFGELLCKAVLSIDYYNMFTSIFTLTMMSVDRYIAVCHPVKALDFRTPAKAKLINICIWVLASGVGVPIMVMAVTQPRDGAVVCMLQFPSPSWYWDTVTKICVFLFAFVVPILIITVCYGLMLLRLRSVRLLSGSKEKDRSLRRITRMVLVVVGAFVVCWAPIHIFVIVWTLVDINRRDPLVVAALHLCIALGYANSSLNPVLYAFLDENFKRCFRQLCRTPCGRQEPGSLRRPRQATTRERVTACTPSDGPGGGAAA
T1 sequence (P97266 whole entry): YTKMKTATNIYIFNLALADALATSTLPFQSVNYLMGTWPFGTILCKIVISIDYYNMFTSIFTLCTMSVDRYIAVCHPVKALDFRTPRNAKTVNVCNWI
Sequence of Mu-type opioid receptor (Homo sapiens, UniProt P35372) (P35372 whole entry): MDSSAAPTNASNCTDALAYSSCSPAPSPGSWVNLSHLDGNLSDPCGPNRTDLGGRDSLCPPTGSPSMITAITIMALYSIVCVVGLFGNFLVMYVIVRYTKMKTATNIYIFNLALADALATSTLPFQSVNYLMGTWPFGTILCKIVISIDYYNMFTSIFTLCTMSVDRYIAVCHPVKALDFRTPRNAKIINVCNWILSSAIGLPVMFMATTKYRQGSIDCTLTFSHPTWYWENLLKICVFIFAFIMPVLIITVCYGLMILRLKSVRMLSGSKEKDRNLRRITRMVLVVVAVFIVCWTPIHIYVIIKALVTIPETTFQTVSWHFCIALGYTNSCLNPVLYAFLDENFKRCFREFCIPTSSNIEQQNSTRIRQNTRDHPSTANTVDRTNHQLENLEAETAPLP

What is called IC50 is the concentration needed to halve the response being measured. Low readings indicate inhibition by little substance, high ones a need for much substance. For `CC1NC(=O)[C@H](Cc2ccc(O)cc2)NC(=O)[C@H](NC(=O)[C@H](N)Cc2ccccc2)CCCCNC1=O` (single isomer, unassigned), the results for the IC50 (on Mu-type opioid receptor [1]; in experiment [2]) were 1830 nM and 9330 nM, respectively.

Take `CC1NC(=O)[C@H](Cc2ccccc2)NC(=O)[C@H](NC(=O)[C@@H](N)Cc2ccc(O)cc2)CCCCNC1=O` (single isomer, unassigned): the IC50 is 0.11 nM at Mu-type opioid receptor [1] and 0.54 nM in experiment [2]. On to `CC1NC(=O)[C@H](Cc2ccc(O)cc2)NC(=O)[C@H](NC(=O)[C@@H](N)Cc2ccccc2)CCCCNC1=O` (single isomer, unassigned), for which the IC50 was determined as 30.4 nM on Mu-type opioid receptor [1] and 367 nM in experiment [2]. As for `NC(=O)[C@H]1CSSC[C@@H](NC(=O)[C@@H](N)Cc2ccccc2)C(=O)NCC(=O)N[C@@H](Cc2ccc([N+](=O)[O-])cc2)C(=O)N1`, 13 nM corresponded to half-maximal inhibition at Mu-type opioid receptor [3] (IC50). Take `NC(=O)[C@H]1CSSC[C@@H](NC(=O)[C@@H](N)Cc2ccccc2)C(=O)NCC(=O)N[C@@H](Cc2ccccc2)C(=O)N1`: the IC50 against Mu-type opioid receptor [3] amounted to 42 nM.

The term Ki denotes the equilibrium dissociation constant of an inhibitor or competing ligand from its target. A lower Ki goes with tighter binding. Take `CC1(C)SSC[C@@H](NC(=O)[C@@H](N)Cc2ccccc2)C(=O)N[C@@H](Cc2ccccc2)C(=O)N[C@H]1C(N)=O`: the IC50 at Mu-type opioid receptor [4] is 9.1 nM. Moreover, at Mu-type opioid receptor [5], the affinity, expressed as Ki, was 13.6 nM. Take `CC1(C)SSC[C@@H](NC(=O)[C@@H](N)Cc2ccc(O)cc2)C(=O)N[C@@H](Cc2ccccc2)C(=O)N[C@H]1C(N)=O`: the Ki at Mu-type opioid receptor [5] was determined as 0.29 nM. On to `N[C@H](Cc1ccccc1)C(=O)N[C@@H]1CCCCNC(=O)[C@H](Cc2cc3ccccc3[nH]2)NC(=O)[C@H](Cc2ccc(O)cc2)NC1=O`, for which the values for the IC50 (against Mu-type opioid receptor [1]; in experiment [2]) were 627 nM and 8130 nM, respectively.

`N[C@@H](Cc1ccccc1)C(=O)N[C@@H]1CCCCNC(=O)[C@H](Cc2cc3ccccc3[nH]2)NC(=O)[C@H](Cc2ccc(O)cc2)NC1=O`: the IC50 against Mu-type opioid receptor [1] worked out at 17.7 nM; in experiment [2], 228 nM.

The values above are taken from ChEMBL document CHEMBL1131909, “Synthesis and biological activities of position one and three transposed analogs of the opioid peptide YKFA” (Bioorg Med Chem Lett, 1999).
